Measured values published in patent US20240182513A1, “SEPARATION OF METAL IONS FROM A SAMPLE USING GLYCOLIPIDS” (ARIZONA BOARD OF REGENTS ON BEHALF OF THE UNIVERSITY OF …, priority 2021, published 2024).

Tests used:
[1] = Example 2.1 rhamnolipid precipitation, filtration, centrifugation: magnesium; details: for Treatment 2: Rhamnolipid and Filtration Cf / Treatment 3: Rhamnolipid and Centrifugation Cc / Treatment 1: Rhamnolipid Only Cr: magnesium concentration after treatment; for Treatment 2: Rhamnolipid and Filtration (Rf) efficiency of removal / Treatment 1: Rhamnolipid Only (Rr) efficiency of removal / Treatment 3: Rhamnolipid and Centrifugation (Rc) efficiency of removal: magnesium
Description: (§1) Structural variants of synthetic glycolipids were used to show the effect of the number and length of the hydrophobic tail(s) on rhamnolipid as a chemical precipitant. […] Solutions (10 mM) were made using nanopure water (≥18 MΩ-cm) then adjusted to a pH of 6.9±0.05 with HNO3 and NaOH. These solutions were made in advance and stored in the cold room for up to one month. They were brought to room temperature before each experiment.
(§2) Three metals were tested for binding with rhamnolipid. Lead as […] (Fisher Scientific, Waltham, MA, 99% purity), was chosen to represent a metal with high rhamnolipid-metal conditional stability constant; lanthanum as La(NO3)3 6(H2O) (Sigma-Aldrich, St. Louis, MO, 99.99% purity) was chosen as a representative REE; and magnesium as Mg(NO3)2 6(H2O) (Sigma-Aldrich, St. Louis, MO, 99% purity) was chosen to represent a metal with a low rhamnolipid-metal conditional stability constant (Hogan et al., 2017). Metal solutions (5 mM) were made using nanopure water (≥18 MΩ-cm) in 20 ml glass scintillation vials. All solutions were used within 15 min to ensure minimal adsorption to the glass vial.
(§3) Three glycolipid-based treatments were evaluated to remove metal from solution: (1) the addition of glycolipid with no further treatment (gravitational precipitation), (2) the addition of a glycolipid followed by filtration or (3) the addition of a glycolipid followed by centrifugation. Each metal (Pb, La, and Mg) was evaluated separately with each of the glycolipid structures. For each experiment, a metal solution was mixed with a glycolipid solution in a 1.7 ml reaction tube at varying molar ratios of glycolipid to metal: 0:1 (glycolipid-free control), 2:1, 5:1, and 10:1. The reactions were mixed in the order of nanopure water (≥18 MΩ-cm), glycolipid solution (10 mM), then metal solution (5 mM). The metal and glycolipid solutions were continuously stirred as they were aliquoted into the reaction tubes. The experiment was performed in triplicate.
(§4) The reaction tubes were mixed overnight (16 to 24 h) and then three samples were collected from each tube to measure the effect of each of the three treatments: a glycolipid only treatment sample, a filtration treatment sample, and a centrifugation treatment sample. Briefly, for the glycolipid only treatment samples all tubes were vortexed for approximately 5 sec immediately before removing 0.1 ml into a dilution tube of 2% trace metal grade nitric acid (12 to 14 ml) to minimize the settling of particles. For the filtration samples each reaction tube was vortexed for 5 sec and then a 0.6 ml aliquot was collected with a 1 ml syringe. A GHP acrodisc disk filter (hydrophilic polypropylene membrane, 0.45 μm pore size, 25 mm disc diameter) from Pall Life Sciences (Port Washington, New York) was then placed onto the end of the syringe and the solution was pushed through the filter. The void space in the disk filter holds approximately 0.5 ml, therefore around 0.1 ml of filtrate was collected into a dilution tube. For the centrifugation sample, the remaining solution was centrifuged at 10,000 RCF for 15 min. Approximately 0.1 ml of the supernatant was aliquoted into a dilution tube. Following collection, all samples were taken for metal analysis using ICP-MS.

[2] = Example 2.1 rhamnolipid precipitation, filtration, centrifugation: lead; details: for Treatment 2: Rhamnolipid and Filtration Cf / Treatment 3: Rhamnolipid and Centrifugation Cc / Treatment 1: Rhamnolipid Only Cr: lead concentration after treatment; for Treatment 1: Rhamnolipid Only (Rr) efficiency of removal / Treatment 2: Rhamnolipid and Filtration (Rf) efficiency of removal / Treatment 3: Rhamnolipid and Centrifugation (Rc) efficiency of removal: lead
Description: as §1, §2, §3, §4

[3] = Example 2.1 rhamnolipid precipitation, filtration, centrifugation: lanthanum; details: for Treatment 2: Rhamnolipid and Filtration Cf / Treatment 3: Rhamnolipid and Centrifugation Cc / Treatment 1: Rhamnolipid Only Cr: lanthanum concentration after treatment; for Treatment 1: Rhamnolipid Only (Rr) efficiency of removal / Treatment 2: Rhamnolipid and Filtration (Rf) efficiency of removal / Treatment 3: Rhamnolipid and Centrifugation (Rc) efficiency of removal: lanthanum
Description: as §1, §2, §3, §4

[4] = molar ratio rhamnolipid:magnesium 2 to 1
[5] = molar ratio rhamnolipid:lead 2 to 1
[6] = molar ratio rhamnolipid:lanthanum 2 to 1

CCCCCCCCCCCC(CC(=O)O)OC1O[C@@H](C)[C@H](O)[C@@H](O)[C@H]1O (stereo partly shown) [Rha C14]
Treatment 2: Rhamnolipid and Filtration Cf ([1]; molar ratio 2 to 1): 0.147 ± 0.045 mmol/L
Treatment 3: Rhamnolipid and Centrifugation Cc ([1]; molar ratio 2 to 1): 0.292 ± 0.008 mmol/L
Treatment 1: Rhamnolipid Only Cr ([1]; molar ratio 5 to 1): 0.300 ± 0.018 mmol/L
Treatment 2: Rhamnolipid and Filtration Cf ([1]; molar ratio 5 to 1): 0.088 ± 0.042 mmol/L
Treatment 3: Rhamnolipid and Centrifugation Cc ([1]; molar ratio 5 to 1): 0.279 ± 0.016 mmol/L
Treatment 1: Rhamnolipid Only Cr ([1]; molar ratio 10 to 1): 0.302 ± 0.017 mmol/L
Treatment 2: Rhamnolipid and Filtration Cf ([1]; molar ratio 10 to 1): 0.009 ± 0.004 mmol/L
Treatment 3: Rhamnolipid and Centrifugation Cc ([1]; molar ratio 10 to 1): 0.219 ± 0.021 mmol/L
Treatment 1: Rhamnolipid Only Cr [1, 4]: 0.291 ± 0.005 mmol/L
Treatment 2: Rhamnolipid and Filtration (Rf) efficiency of removal ([1]; molar ratio 2 to 1): (45.0%)
Treatment 2: Rhamnolipid and Filtration (Rf) efficiency of removal ([1]; molar ratio 5 to 1): (66.9%)
Treatment 2: Rhamnolipid and Filtration (Rf) efficiency of removal ([1]; molar ratio 10 to 1): (96.6%)
Treatment 2: Rhamnolipid and Filtration Cf ([2]; molar ratio 2 to 1): 0.031 ± 0.030 mmol/L
Treatment 3: Rhamnolipid and Centrifugation Cc ([2]; molar ratio 2 to 1): 0.194 ± 0.006 mmol/L
Treatment 1: Rhamnolipid Only Cr ([2]; molar ratio 5 to 1): 0.315 ± 0.004 mmol/L
Treatment 2: Rhamnolipid and Filtration Cf ([2]; molar ratio 5 to 1): 0.000 ± 0.000 mmol/L
Treatment 3: Rhamnolipid and Centrifugation Cc ([2]; molar ratio 5 to 1): 0.315 ± 0.006 mmol/L
Treatment 1: Rhamnolipid Only Cr ([2]; molar ratio 10 to 1): 0.311 ± 0.008 mmol/L
Treatment 2: Rhamnolipid and Filtration Cf ([2]; molar ratio 10 to 1): 0.001 ± 0.001 mmol/L
Treatment 3: Rhamnolipid and Centrifugation Cc ([2]; molar ratio 10 to 1): 0.327 ± 0.001 mmol/L
Treatment 1: Rhamnolipid Only Cr [2, 5]: 0.278 ± 0.011 mmol/L
Treatment 1: Rhamnolipid Only (Rr) efficiency of removal ([2]; molar ratio 2 to 1): (13.3%)
Treatment 2: Rhamnolipid and Filtration (Rf) efficiency of removal ([2]; molar ratio 2 to 1): (90.2%)
Treatment 3: Rhamnolipid and Centrifugation (Rc) efficiency of removal ([2]; molar ratio 2 to 1): (39.4%)
Treatment 1: Rhamnolipid Only (Rr) efficiency of removal ([2]; molar ratio 5 to 1): (1.6%)
Treatment 2: Rhamnolipid and Filtration (Rf) efficiency of removal ([2]; molar ratio 5 to 1): (100.0%)
Treatment 3: Rhamnolipid and Centrifugation (Rc) efficiency of removal ([2]; molar ratio 5 to 1): (1.8%)
Treatment 1: Rhamnolipid Only (Rr) efficiency of removal ([2]; molar ratio 10 to 1): (3.0%)
Treatment 2: Rhamnolipid and Filtration (Rf) efficiency of removal ([2]; molar ratio 10 to 1): (99.7%)
Treatment 2: Rhamnolipid and Filtration Cf ([3]; molar ratio 2 to 1): 0.164 ± 0.058 mmol/L
Treatment 3: Rhamnolipid and Centrifugation Cc ([3]; molar ratio 2 to 1): 0.221 ± 0.014 mmol/L
Treatment 1: Rhamnolipid Only Cr ([3]; molar ratio 5 to 1): 0.215 ± 0.024 mmol/L
Treatment 2: Rhamnolipid and Filtration Cf ([3]; molar ratio 5 to 1): 0.044 ± 0.007 mmol/L
Treatment 3: Rhamnolipid and Centrifugation Cc ([3]; molar ratio 5 to 1): 0.094 ± 0.002 mmol/L
Treatment 1: Rhamnolipid Only Cr ([3]; molar ratio 10 to 1): 0.314 ± 0.016 mmol/L
Treatment 2: Rhamnolipid and Filtration Cf ([3]; molar ratio 10 to 1): 0.0 ± 0.000 mmol/L
Treatment 3: Rhamnolipid and Centrifugation Cc ([3]; molar ratio 10 to 1): 0.006 ± 0.001 mmol/L
Treatment 1: Rhamnolipid Only Cr [3, 6]: 0.247 ± 0.034 mmol/L
Treatment 1: Rhamnolipid Only (Rr) efficiency of removal ([3]; molar ratio 2 to 1): (16.9%)
Treatment 2: Rhamnolipid and Filtration (Rf) efficiency of removal ([3]; molar ratio 2 to 1): (44.9%)
Treatment 3: Rhamnolipid and Centrifugation (Rc) efficiency of removal ([3]; molar ratio 2 to 1): (25.8%)
Treatment 1: Rhamnolipid Only (Rr) efficiency of removal ([3]; molar ratio 5 to 1): (27.7%)
Treatment 2: Rhamnolipid and Filtration (Rf) efficiency of removal ([3]; molar ratio 5 to 1): (85.3%)
Treatment 3: Rhamnolipid and Centrifugation (Rc) efficiency of removal ([3]; molar ratio 5 to 1): (68.5%)
Treatment 2: Rhamnolipid and Filtration (Rf) efficiency of removal ([3]; molar ratio 10 to 1): 1.0 (99.9%)
Treatment 3: Rhamnolipid and Centrifugation (Rc) efficiency of removal ([3]; molar ratio 10 to 1): (98.0%)

CCCCCCCC(CC(=O)O)OC1O[C@@H](C)[C@H](O)[C@@H](O)[C@H]1O (stereo partly shown) [Rha C10]
Treatment 2: Rhamnolipid and Filtration Cf ([1]; molar ratio 2 to 1): 0.328 ± 0.036 mmol/L
Treatment 3: Rhamnolipid and Centrifugation Cc ([1]; molar ratio 2 to 1): 0.497 ± 0.014 mmol/L
Treatment 1: Rhamnolipid Only Cr ([1]; molar ratio 5 to 1): 0.492 ± 0.007 mmol/L
Treatment 2: Rhamnolipid and Filtration Cf ([1]; molar ratio 5 to 1): 0.283 ± 0.059 mmol/L
Treatment 3: Rhamnolipid and Centrifugation Cc ([1]; molar ratio 5 to 1): 0.500 ± 0.008 mmol/L
Treatment 1: Rhamnolipid Only Cr ([1]; molar ratio 10 to 1): 0.503 ± 0.004 mmol/L
Treatment 2: Rhamnolipid and Filtration Cf ([1]; molar ratio 10 to 1): 0.317 ± 0.073 mmol/L
Treatment 3: Rhamnolipid and Centrifugation Cc ([1]; molar ratio 10 to 1): 0.490 ± 0.004 mmol/L
Treatment 1: Rhamnolipid Only Cr [1, 4]: 0.486 ± 0.021 mmol/L
Treatment 1: Rhamnolipid Only (Rr) efficiency of removal ([1]; molar ratio 2 to 1): (3.1%)
Treatment 2: Rhamnolipid and Filtration (Rf) efficiency of removal ([1]; molar ratio 2 to 1): (34.6%)
Treatment 3: Rhamnolipid and Centrifugation (Rc) efficiency of removal ([1]; molar ratio 2 to 1): (0.8%)
Treatment 1: Rhamnolipid Only (Rr) efficiency of removal ([1]; molar ratio 5 to 1): (1.8%)
Treatment 2: Rhamnolipid and Filtration (Rf) efficiency of removal ([1]; molar ratio 5 to 1): (43.6%)
Treatment 3: Rhamnolipid and Centrifugation (Rc) efficiency of removal ([1]; molar ratio 5 to 1): (0.2%)
Treatment 2: Rhamnolipid and Filtration (Rf) efficiency of removal ([1]; molar ratio 10 to 1): (36.7%)
Treatment 3: Rhamnolipid and Centrifugation (Rc) efficiency of removal ([1]; molar ratio 10 to 1): (2.2%)
Treatment 3: Rhamnolipid and Centrifugation Cc ([2]; molar ratio 2 to 1): 0.320 ± 0.045 mmol/L
Treatment 1: Rhamnolipid Only Cr ([2]; molar ratio 5 to 1): 0.293 ± 0.006 mmol/L
Treatment 2: Rhamnolipid and Filtration Cf ([2]; molar ratio 5 to 1): 0.028 ± 0.031 mmol/L
Treatment 3: Rhamnolipid and Centrifugation Cc ([2]; molar ratio 5 to 1): 0.288 ± 0.002 mmol/L
Treatment 1: Rhamnolipid Only Cr ([2]; molar ratio 10 to 1): 0.232 ± 0.009 mmol/L
Treatment 2: Rhamnolipid and Filtration Cf ([2]; molar ratio 10 to 1): 0.001 ± 0.000 mmol/L
Treatment 3: Rhamnolipid and Centrifugation Cc ([2]; molar ratio 10 to 1): 0.231 ± 0.003 mmol/L
Treatment 1: Rhamnolipid Only Cr [2, 5]: 0.320 ± 0.012 mmol/L
Treatment 1: Rhamnolipid Only (Rr) efficiency of removal ([2]; molar ratio 2 to 1): (2.7%)
Treatment 2: Rhamnolipid and Filtration (Rf) efficiency of removal ([2]; molar ratio 2 to 1): (88.8%)
Treatment 3: Rhamnolipid and Centrifugation (Rc) efficiency of removal ([2]; molar ratio 2 to 1): (2.5%)
Treatment 1: Rhamnolipid Only (Rr) efficiency of removal ([2]; molar ratio 5 to 1): (10.7%)
Treatment 2: Rhamnolipid and Filtration (Rf) efficiency of removal ([2]; molar ratio 5 to 1): (91.6%)
Treatment 3: Rhamnolipid and Centrifugation (Rc) efficiency of removal ([2]; molar ratio 5 to 1): (12.2%)
Treatment 1: Rhamnolipid Only (Rr) efficiency of removal ([2]; molar ratio 10 to 1): (29.3%)
Treatment 2: Rhamnolipid and Filtration (Rf) efficiency of removal ([2]; molar ratio 10 to 1): (99.8%)
Treatment 3: Rhamnolipid and Centrifugation (Rc) efficiency of removal ([2]; molar ratio 10 to 1): (29.7%)
Treatment 2: Rhamnolipid and Filtration Cf ([3]; molar ratio 2 to 1): 0.096 ± 0.025 mmol/L
Treatment 3: Rhamnolipid and Centrifugation Cc ([3]; molar ratio 2 to 1): 0.228 ± 0.013 mmol/L
Treatment 1: Rhamnolipid Only Cr ([3]; molar ratio 5 to 1): 0.246 ± 0.016 mmol/L
Treatment 2: Rhamnolipid and Filtration Cf ([3]; molar ratio 5 to 1): 0.015 ± 0.010 mmol/L
Treatment 3: Rhamnolipid and Centrifugation Cc ([3]; molar ratio 5 to 1): 0.088 ± 0.003 mmol/L
Treatment 1: Rhamnolipid Only Cr ([3]; molar ratio 10 to 1): 0.190 ± 0.004 mmol/L
Treatment 2: Rhamnolipid and Filtration Cf ([3]; molar ratio 10 to 1): 0.022 ± 0.028 mmol/L
Treatment 3: Rhamnolipid and Centrifugation Cc ([3]; molar ratio 10 to 1): 0.051 ± 0.010 mmol/L
Treatment 1: Rhamnolipid Only Cr [3, 6]: 0.282 ± 0.009 mmol/L
Treatment 2: Rhamnolipid and Filtration (Rf) efficiency of removal ([3]; molar ratio 2 to 1): (65.7%)
Treatment 3: Rhamnolipid and Centrifugation (Rc) efficiency of removal ([3]; molar ratio 2 to 1): (18.6%)
Treatment 1: Rhamnolipid Only (Rr) efficiency of removal ([3]; molar ratio 5 to 1): (12.3%)
Treatment 2: Rhamnolipid and Filtration (Rf) efficiency of removal ([3]; molar ratio 5 to 1): (94.6%)
Treatment 3: Rhamnolipid and Centrifugation (Rc) efficiency of removal ([3]; molar ratio 5 to 1): (68.7%)
Treatment 1: Rhamnolipid Only (Rr) efficiency of removal ([3]; molar ratio 10 to 1): (32.2%)
Treatment 2: Rhamnolipid and Filtration (Rf) efficiency of removal ([3]; molar ratio 10 to 1): (92.1%)
Treatment 3: Rhamnolipid and Centrifugation (Rc) efficiency of removal ([3]; molar ratio 10 to 1): (81.7%)
